From patent US4803220A, “Pharmaceutical agents” (Imperial Chemical Industries PLC, priority 1984, dated 1989)
One block for each compound: values may come before it.

Columns and labels:
[1] = test system: dog platelets; assay: ex vivo U46619 induced blood platelet aggregation after oral dosing, dogs; type: in vivo; conditions: for inhibition of U46619 induced aggregation: 12 hours after oral administration to dogs at 2.5 mg./kg.
Excerpt: (§1) (e) For example in the rabbit, arterial blood samples are taken by standard techniques into 3.8% w/v solution of trisodium citrate as anti-coagulant (1 part citrate: 9 parts blood) and then centrifuged first at 150 g, and then at 1000 g, to prepare platelet rich and platelet poor plasma fractions. These fractions are then used to calibrate an instrument for measuring light transmittance and thus the amount of platelet aggregation. The extent of platelet aggregation following addition of the TXA2 mimetic agent U46619 (final concentrations 0.2-2.2 μg./ml.) to the platelet rich plasma fraction is then determined, and the value of maximum aggregation in response to each concentration of U46619 is recorded. The test animals are then dosed orally with the test compound, and arterial blood samples are withdrawn at intervals after dosing. The platelet rich plasma fraction is prepared and U46619 added as above, and the extent of aggregation assessed by measuring the light transmittance of the sample. This value is compared with that obtained from the same animal before dosing, so that a measure of the extent of inhibition of U46619 induced blood platelet aggregation is obtained.
A similar procedure is used in rats and guinea pigs except that blood samples are not taken prior to dosing but a control value is obtained from a group of undosed animals. When the aggregation of dog platelets is being studied, it is necessary to use a predetermined, threshold concentration of the platelet aggregant adenosine diphosphate (about 0.4-1.2×10^-6 M) together with the TXA2 mimetic agent, U46619.

[2] = test system: guinea-pig; assay: bronchoconstriction test, Konzett-Rossler guinea-pig model, U46619 induced; type: in vivo; conditions: for reduction (inhibition) of bronchoconstriction: 0.5 mg./kg. p.o., 2.5 hours after administration, guinea-pig, U46619 i.v.
Method: (c) a bronchoconstriction test involving measuring the inhibition by a test compound of the bronchoconstriction induced in the Konzett-Rossler guinea-pig model (as modified by Collier and James, Brit. J. Pharmacol., 1967, 30, 283-307) by intravenous administration of the TXA2 mimetic agent, U46619 at 1-1.9 μg/kg.

[3] = test system: citrated, platelet rich, human plasma; assay: blood platelet aggregation test, U46619 induced aggregation of platelet rich plasma; type: cell-based; conditions: inhibition of aggregation of human platelet rich plasma induced by U46619 (50-250 ng/ml)
Method: (b) a blood platelet aggregation test based on that described by Born (Nature, 1962, 194, 927-929) and involving measuring the inhibition by a test compound of aggregation of citrated, platelet rich, human plasma induced by a sub-maximal concentration (in the range 50-250 ng/ml.) of U46619; and […]

[4] = test system: blood platelets; assay: ex vivo U46619 induced blood platelet aggregation after oral dosing, rats; type: in vivo, rat; conditions: 6.5 hours after oral administration to rats at 10 mg./kg.
Excerpt: as §1
A similar procedure is used in rats and guinea pigs except that blood samples are not taken prior to dosing but a control value is obtained from a group of undosed animals. […]

[5] = test system: Male rats (Alderley Park strain); assay: U46619 induced hypertensive effect in anaesthetised rats; type: in vivo, rat
Method: (d) Male rats (Alderley Park strain) are anaesthetised with sodium pentobarbital and blood pressure is monitored at the carotid artery. The TXA2 mimetic agent known as U46619 is administered intravenously via the jugular vein and an ED50 (dose necessary to produce 50% of the maximum hypertensive effect) is established (n=3). The ED50 for U46619 is approximately 5 μg/kg. The test compound is then administered either intravenously via the jugular vein or orally via a cannula directly into the stomach and the animal challenged with an ED50 dose of U46619, five minutes after dosing with test compound and then successively every ten minutes until the hypertensive effect of U46619 is no longer blocked.

Compound: CC1(C)OC[C@@H](C/C=C\CCCC(=O)O)[C@@H](c2ccccc2O)O1 (relative stereo) [P, 5(Z)-7-(4-o-hydroxyphenyl-2,2-dimethyl-1,3-dioxan-cis-5-yl)heptenoic acid]
inhibition of U46619 induced aggregation [1]: 15%
maximal inhibition of platelet aggregation ([1]; some 3 hours after an oral dose of 2.5 mg./kg. in dogs): 93%
reduction (inhibition) of bronchoconstriction [2]: 57%

Compound: O=C(O)CCC/C=C\C[C@@H]1CO[C@H](C(F)(F)F)O[C@@H]1c1ccccc1 (relative stereo) [Q, 5(Z)-7-([2,4,5-cis]-4-phenyl-2-trifluoromethyl-1,3-dioxan-5-yl)heptenoic acid]
maximal inhibition of platelet aggregation ([1]; some 4 hours after an oral dose of 75 mg./kg. in dogs): 23%
reduction (inhibition) of bronchoconstriction [2]: no significant inhibition

IC50 [3]: 7.78 ± 1.6 ng/mL
Compound: O=C(O)CCC/C=C\C[C@@H]1CO[C@H](C(F)(F)F)O[C@@H]1c1ccccc1O (relative stereo) [formula I, 5(Z)-7-([2,4,5-cis]-4-o-hydroxyphenyl-2-trifluoromethyl-1,3-dioxan-5-yl)heptenoic acid]
inhibition of U46619 induced aggregation [4]: 90%
inhibition of U46619 induced aggregation [1]: 95%
inhibition of U46619 induced platelet aggregation (in words) ([1]; for up to 12 hours following an oral dose of 2.5 mg./kg. in dogs): essentially complete inhibition
inhibition of bronchoconstriction ([2]; 0.5 mg./kg. oral, 3 hours after dosing (as restated)): ~95%
reduction (inhibition) of bronchoconstriction [2]: ~95%
protection from blood pressure rise induced by U46619 ([5]; 3 hours after oral administration at 5 mg./kg., rats): essentially complete protection

Compound: CCCCC[C@H](O)/C=C/[C@@H]1[C@@H](C/C=C\CCCC(=O)O)[C@H]2CO[C@@H]1C2 [Example U46619]
ED50 ([5]; Rattus norvegicus, iv, U46619 intravenously via the jugular vein, anaesthetised rats, n=3, read-out: ED50 (dose necessary to produce 50% of the maximum hypertensive effect)): ~5 µg/kg
